Key:
Format in all cases: cell-based
[1] = tested on: SK-OV-3 (ovarian cancer cell); assay: MTT cell viability, human solid tumor cells; settings: 72 h, MTT
Description: (§1) Well-growing cells of above were obtained and inoculated into wells of a 96-well cell culture plate at 5000 cells/well. Individual compounds of various concentrations were added, mixed uniformly, and incubated (5% CO2) at 37° C. for 72 hours. Then the cell viability was determined by the MTT method.
(§2) b) Determine the inhibitory effects of TTD in combination with Ada A on the human solid tumor cells. The pretreatment of the cells was the same as in a). The control group was not treated with the compound while administered. […] As to the combination group, two compounds were added together into the same group of wells, with the fmal concentration being the concentration to which the IC50 of the single drugs correspond. After 72 hours of incubation, the MTT method was used for the determination of cell viability. The cell viability of the control group was set to 100% in this experiment, and the TTD, Ada A single drug and combined effects on cell viability (%) were calculated.

[2] = tested on: RKO (human colon adenocarcinoma cell); assay: MTT cell viability, human solid tumor cells; settings: RKO, 72 h, MTT
Description: as §1, §2

[3] = tested on: Hep2 (laryngeal carcinoma); assay: MTT cell viability, human solid tumor cells; settings: 72 h, MTT
Description: as §1, §2

MG63 (osteosarcoma) = assay: MTT cell viability, human solid tumor cells; settings: 72 h, MTT
Description: as §1, §2

[4] = tested on: SPC-A-1 (human lung adenocarcinoma cell); assay: MTT cell viability, human solid tumor cells; settings: 72 h, MTT
Description: as §1, §2

[5] = tested on: CNE (nasopharyngeal carcinoma cell); assay: MTT cell viability, human solid tumor cells; settings: CNE, 72 h, MTT
Description: as §1, §2

[6] = tested on: Becap-37 (human breast cancer cell); assay: MTT cell viability, human solid tumor cells; settings: 72 h, MTT
Description: as §1, §2

[7] = tested on: Hep G2 (human hepatoma carcinoma cell); assay: MTT cell viability, human solid tumor cells; settings: 72 h, MTT
Description: as §1, §2

[8] = tested on: Hela (human cervical cancer cell); assay: MTT cell viability, human solid tumor cells; settings: Hela, 72 h, MTT
Description: as §1, §2

[9] = tested on: Panc-1 (pancreatic cancer); assay: MTT cell viability, human solid tumor cells; settings: 72 h, MTT
Description: as §1, §2

[10] = tested on: MGC-803 (human gastric cancer cell); assay: MTT cell viability, human solid tumor cells; settings: 72 h, MTT
Description: as §1, §2

[11] = tested on: U87-MG (malignant glioma cell); assay: MTT cell viability, human solid tumor cells; settings: U-87 MG, U87-MG, 72 h, MTT
Description: as §1, §2

PC-3 (prostate cancer) = assay: MTT cell viability, human solid tumor cells; settings: 72 h, MTT
Description: as §1, §2

A549 (human lung cancer) = assay: MTT cell viability, human solid tumor cells; settings: 72 h, MTT
Description: as §1, §2

[12] = tested on: Huh7 (human liver cancer cell); assay: MTT cell viability, human solid tumor cells; settings: 72 h, MTT
Description: as §1, §2

[13] = tested on: CaES-17 (esophageal cancer cell); assay: MTT cell viability, human solid tumor cells
Description: as §1
b) Determine the inhibitory effects of TTD in combination with Ada A on the human solid tumor cells. The pretreatment of the cells was the same as in a). The control group was not treated with the compound while administered. The two single-drug groups were added with respective active component to the concentration under which the IC50 of two compounds in a) achieve. As to the combination group, two compounds were added together into the same group of wells, with the fmal concentration being the concentration to which the IC50 of the single drugs correspond. After 72 hours of incubation, the MTT method was used for the determination of cell viability. The cell viability of the control group was set to 100% in this experiment, and the TTD, Ada A single drug and combined effects on cell viability (%) were calculated.

[14] = tested on: kasumi-1 cells (acute myeloid leukemia M2 type); assay: MTT cell viability, leukemia cells, TTD and Acla A alone and combined; settings: Homo sapiens, 72 h, MTT
Description: (§3) Well-growing leukemia cells were obtained and inoculated into wells of a 96-well cell culture plate at 5000 cells/well. Individual compounds of various concentrations were added, mixed uniformly, and incubated (5% CO2) at 37° C. for 72 hours. Then the cell viability was determined by the MTT method.
(§4) b) Determine the inhibitory effects of TTD in combination with Ada A on leukemia cells in vitro. The pretreatment of the cells was the same as in a). The control group was not treated with the compound while administered. […] After 72 hours of incubation, the MTT method was used for the determination of cell viability. The cell viability of the control group was set to 100% in this experiment, and the TTD, Ada A single drug and combined effects on cell viability (%) were calculated.

[15] = tested on: Jurkat cells (acute lymphoblastic leukemia); assay: as above; settings: Homo sapiens, 72 h, MTT
Description: as §3, §4

[16] = tested on: k562/ADR leukemia cells (drug-resistant chronic myeloid leukemia); assay: as above; settings: Homo sapiens, k562/ADR, 72 h, MTT
Description: as §3, §4

[17] = single compound, read-out: concentration (IC50 value of 72 hours)

Question: Which viability at 5 µg/mL ([1]; SK-OV-3, TTD 5 μg/mL, control = 100%, read-out: CV (cell viability)) does the source give for COc1ccc2cc1Oc1ccc(cc1)C[C@H]1c3cc(c(OC)cc3CCN1C)Oc1c(OC)c(OC)cc3c1[C@H](C2)N(C)CC3 [TTD, tetrandrine] here?
Answer: 55.9%

Question: What about the IC50 ([1]; SK-OV-3, single compound, read-out: concentration (IC50 value of 72 hours)) of the same compound?
Answer: 5 µg/mL

Question: What about the viability at 1.5 µg/mL ([2]; TTD 1.5 μg/mL, control = 100%, read-out: CV (cell viability)) of the same compound?
Answer: 45.3%

Question: What about the IC50 [2, 17] of the same compound?
Answer: 1.5 µg/mL

Question: What about the viability at 2.59 µg/mL ([3]; HEp-2, Hep2, TTD 2.59 μg/mL, control = 100%, read-out: CV (cell viability)) of the same compound?
Answer: 43.8%

Question: What about the IC50 ([3]; HEp-2, Hep2, single compound, read-out: concentration (IC50 value of 72 hours)) of the same compound?
Answer: 2.59 µg/mL

Question: And the viability at 2 µg/mL (MG63 (osteosarcoma); MG-63, MG63, TTD 2 μg/mL, control = 100%, read-out: CV (cell viability))?
Answer: 40.8%

Question: What about the IC50 (MG63 (osteosarcoma); MG-63, MG63, single compound, read-out: concentration (IC50 value of 72 hours)) of the same compound?
Answer: 2 µg/mL

Question: What about the viability at 3.5 µg/mL ([4]; SPCA1, SPC-A-1, TTD 3.5 μg/mL, control = 100%, read-out: CV (cell viability)) of the same compound?
Answer: 52.5%

Question: And the IC50 ([4]; SPCA1, SPC-A-1, single compound, read-out: concentration (IC50 value of 72 hours))?
Answer: 3.5 µg/mL

Question: And the viability at 3 µg/mL ([5]; TTD 3 μg/mL, control = 100%, read-out: CV (cell viability))?
Answer: 51.9%

Question: What about the IC50 [5, 17] of the same compound?
Answer: 3 µg/mL

Question: And the viability at 3 µg/mL ([6]; Becap-37, TTD 3 μg/mL, control = 100%, read-out: CV (cell viability))?
Answer: 56.1%

Question: And the IC50 ([6]; Becap-37, single compound, read-out: concentration (IC50 value of 72 hours))?
Answer: 3 µg/mL

Question: And the viability at 1.5 µg/mL ([7]; HepG2, Hep G2, TTD 1.5 μg/mL, control = 100%, read-out: CV (cell viability))?
Answer: 52.5%

Question: What about the IC50 ([7]; HepG2, Hep G2, single compound, read-out: concentration (IC50 value of 72 hours)) of the same compound?
Answer: 1.5 µg/mL

Question: What about the viability at 1.25 µg/mL ([8]; TTD 1.25 μg/mL, control = 100%, read-out: CV (cell viability)) of the same compound?
Answer: 47%

Question: What about the IC50 [8, 17] of the same compound?
Answer: 1.25 µg/mL

Question: And the viability at 4.67 µg/mL ([9]; Panc-1, TTD 4.67 μg/mL, control = 100%, read-out: CV (cell viability))?
Answer: 52.3%

Question: What about the IC50 ([9]; Panc-1, single compound, read-out: concentration (IC50 value of 72 hours)) of the same compound?
Answer: 4.67 µg/mL

Question: What about the viability at 3 µg/mL ([10]; MGC-803, TTD 3 μg/mL, control = 100%, read-out: CV (cell viability)) of the same compound?
Answer: 50.9%

Question: What about the IC50 ([10]; MGC-803, single compound, read-out: concentration (IC50 value of 72 hours)) of the same compound?
Answer: 3 µg/mL

Question: What about the viability at 2.37 µg/mL ([11]; TTD 2.37 μg/mL, control = 100%, read-out: CV (cell viability)) of the same compound?
Answer: 47.7%

Question: And the IC50 [11, 17]?
Answer: 2.37 µg/mL

Question: What about the viability at 4.5 µg/mL (PC-3 (prostate cancer); PC-3, TTD 4.5 μg/mL, control = 100%, read-out: CV (cell viability)) of the same compound?
Answer: 47%

Question: What about the IC50 (PC-3 (prostate cancer); PC-3, single compound, read-out: concentration (IC50 value of 72 hours)) of the same compound?
Answer: 4.5 µg/mL

Question: And the viability at 8.34 µg/mL (A549 (human lung cancer); A549, TTD 8.34 μg/mL, control = 100%, read-out: CV (cell viability))?
Answer: 47.6%

Question: And the IC50 (A549 (human lung cancer); A549, single compound, read-out: concentration (IC50 value of 72 hours))?
Answer: 8.34 µg/mL

Question: What about the viability at 3 µg/mL ([12]; Huh-7, Huh7, TTD 3 μg/mL, control = 100%, read-out: CV (cell viability)) of the same compound?
Answer: 54%

Question: What about the IC50 ([12]; Huh-7, Huh7, single compound, read-out: concentration (IC50 value of 72 hours)) of the same compound?
Answer: 3 µg/mL

Question: What about the viability at 3.59 µg/mL ([13]; CaEs17, 72 h, read-out: CV (cell viability)) of the same compound?
Answer: 47.1%

Question: And the IC50 ([13]; CaEs17, CaES-17, single compound, 72 h, MTT, read-out: concentration (IC50 value of 72 hours))?
Answer: 3.59 µg/mL

Question: What about the viability at 2 µg/mL ([14]; kasumi-1, TTD 2 μg/mL, control = 100%, read-out: CV (cell viability)) of the same compound?
Answer: 51.7%

Question: What about the IC50 ([14]; kasumi-1, single compound, read-out: concentration (IC50 value of 72 hours)) of the same compound?
Answer: 2 µg/mL

Question: And the viability at 1.69 µg/mL ([15]; TTD 1.69 μg/mL, control = 100%, read-out: CV (cell viability))?
Answer: 52.3%

Question: What about the IC50 [15, 17] of the same compound?
Answer: 1.69 µg/mL

Question: What about the viability at 0.6 µg/mL ([16]; TTD 0.6 μg/mL, control = 100%, read-out: CV (cell viability)) of the same compound?
Answer: 48%

Question: What about the IC50 [16, 17] of the same compound?
Answer: 0.6 µg/mL

— patent US20150290232A1, “DRUG COMPOSITION FOR TREATING TUMORS AND APPLICATION THEREOF” (priority 2012, published 2015)
